# According to patent US20220313595A1, “Oral Care Compositions Comprising Hops” (The Procter & Gamble Company, priority 2021, published 2022):
# System: plaque biofilm grown from fresh pooled human saliva
# Assay: in vitro plaque glycolysis model (iPGRM): acid production and acid inhibition
# Type: cell-based, plaque microorganisms from human saliva
# Conditions: TABLE 2, 3-day biofilm
# Protocol: Acid production and acid inhibition were determined with the in vitro plaque glycolysis model (iPGRM). The purpose of this technique is to provide a simple and quick method for determining if compounds have an influence on the metabolic pathways that plaque microorganisms utilize to produce toxins that adversely affect gingival health. It is also useful to determine if compounds have an influence on the metabolic pathways that plaque microorganisms utilize to produce plaque acids that adversely affect teeth.
# The in vitro plaque glycolysis model (iPGRM) is a technique in which plaque is grown from human saliva and treated with various agents to determine anti-glycolytic activity of treatments. When bacteria convert sugar into energy with the help of enzymes, acids are formed. These acids demineralize and damage the dental enamel. […]
# […] The pH of the media solutions was then measured to determine the amount of glycolysis inhibition relative to a negative control.
# On Day 1, new glass rods (5 mm×90 mm) were polished approximately 25 mm from the un-tapered end on a lathe with silicon carbide paper of 240, 320, 400, and 600 grit used sequentially. […] After polishing, rods were stored until ready to run test. […]
compound,measurement,setting,value
"[H]/N=C(\N/C(=N/[H])NCCCCCCNC(=N)NC(=N)Nc1ccc(Cl)cc1)Nc1ccc(Cl)cc1 [1% Chlorhexidine, Chlorhexidine]",Acid Production (ΔpH) Mean,"2 min treatment with dentifrice slurry or diluted treatment in water (1:5), ΔpH vs blank vials",0.30 ΔpH
same,Mean Acid Inhibition (%) Mean,relative to negative control Crest Cavity Protection,80.77%
